{
  "source": "patent US20050020550A1",
  "about": "“Selective testicular 11beta-HSD inhibitors and methods of use thereof” (priority 2003, published 2005)",
  "key": {"rat aortic rings": {"test_system": "rat aortic rings", "test": "Contractile response of rat aortic rings to phenylephrine", "settings": "for contractile response to phenylephrine: rings incubated 24 hours with corticosterone (10 nmol/L) and antisense oligomers (3 μmol/L); for effect of the steroid on contractile responses to phenylephrine: rat aortic rings incubated with the steroid, compared to controls", "protocol": "Male Sprague-Dawley (150-200 g) rats were anesthetized with pentobarbital (50 mg/kg IP), and a median sternotomy was performed followed by the rapid removal of the thoracic aorta. The adventitia was removed, but the endothelium was left intact. The aorta was cut into 2-3 mm rings and individual rings were placed into a single well of a twenty four well culture plate and incubated at 37° C. under 95% O2-5% CO2. Each well contained 1 mL of DMEM/F12 containing 1% fetal bovine serum, streptomycin (100 μg/ml), penicillin (100 units/ml) and amphotericin (0.25 μg/ml). Aortic rings were incubated for 24 hours prior to contractility measurements with the following combinations of steroids, and antisense/nonsense oligonucleotides (3 μmol/L): • Corticosterone (10 nmol/L)+11β-HSD2 antisense or 11β-HSD2 nonsense oligomer • Corticosterone (10 nmol/L)+11β-HSD1 antisense or 11β-HSD1 nonsense oligomer • In 11-dehydrocorticosterone experiments with vehicle alone • 11-dehydrocorticosterone (100 nmol/L)+11β-HSD1 Antisense or 11β-HSD1 nonsense oligomer\nAntisense phosphorothioate oligonucleotides, targeted to block either 11β-HSD2 or 11β-HSD1 gene expression, were obtained from Research Genetics, Huntsville Ala. Antisense oligomers complementary to 20 bp sequences spanning the ribosome binding/translation start site were used. Oligomer sequences were: 5′-CATAACTGCCGTCCAACAGC-3′ (SEQ ID No.: 2) for 11β-HSD1 Antisense and 5′-AGCCCAGCGCTCCATGACTT-3′ (SEQ ID No. 3) for 11β-HSD2 antisense. In control experiments the corresponding sense sequence was used as the nonsense oligomer. Antisense and nonsense oligomers were added directly to each well at 20 μg/10:1 sterile H2O per well for a final concentration of 3 μmol/L.\nFor contraction measurements, aortic rings were suspended by tungsten wires with 1 g of tension and placed in a vessel bath containing serum free DMEM/F 12 media at 37° C. aerated with 95% O2-5% CO2, at pH 7.4. Vessels were equilibrated for 20 minutes and then tested with phenylephrine (1 nmol/L−10 μmol/L). Although phenylephrine is structurally not a catecholamine, it is considered to be a functional catecholamine as it activates […]. Due to its favorable stability characteristics, it is widely used as a catecholamine substitute in experiments of this nature. The intensity of contraction was assessed by use of a Narishige micromanipulator and model FT03 force transducer (Grass Instrument Co. West Warwick, R.I.). Measurements were recorded on computer using the Labview 4.1 Virtual Instrument System (National Instruments, Austin, Tex.)."}, "11β-HSD enzyme activity": {"test_system": "11β-HSD enzyme activity", "test": "Conversion of 3H-corticosterone to 11-dehydrocorticosterone by aortic rings", "design": "species or system rat", "settings": "24 hrs, 3H-corticosterone (10 nM) plus antisense (3 μM), compared to nonsense oligomers", "protocol": "The effects of 11β-HSD1 and 11β-HSD2 antisense on the inter-conversion of ^3H-corticosterone and ^3H-11-dehydro-corticosterone by aortic rings was also determined. Rings (2-3 mm) obtained in a similar manner as those in the contraction studies, were incubated in 1 ml DMEM/F12 media containing 1% FBS at 37° C. under 95% O2-5% CO2 in 24-well culture plates. […] The amount of ^3H-11-dehydro-corticqsterone in the incubation medium after 24 hrs was then measured. The effects of 11β-HSD1 antisense/nonsense were measured in quadruplicate (n=6 aortic rings per well) and the effects of 11β-HSD2 antisense/nonsense in duplicate (n=8 aortic rings per well), • (ii) ^3H-11-dehydro-corticosterone (10 nmol/L)±11β-HSD1 antisense (3 μmol/L); this experiment was performed in duplicate (n=10 aortic rings per well). Control groups were incubated with the appropriate nonsense oligomer. ^3H-corticosterone in the incubation medium after 24 hrs was then measured. In this experiment, aortic rings were also analyzed for ^3H-corticosterone content. […]\n(§1) Incubation media was collected, ran through a Sep-Pak and eluted with 3 mls of methanol, the eluate was then dried under nitrogen and reconstituted in 500:1 methanol. […] Steroids were observed by monitoring radioactivity on-line with a Packard Radiomatic Flo-One/Beta Series A-500 counter connected to a Dell Optiflex 425 S/L computer. […]"}, "[1]": {"test_system": "11β-HSD1-reductase activity", "test": "Conversion of 3H-11-dehydrocorticosterone back to corticosterone by aortic rings", "design": "species or system rat", "protocol": "The effects of 11β-HSD1 and 11β-HSD2 antisense on the inter-conversion of ^3H-corticosterone and ^3H-11-dehydro-corticosterone by aortic rings was also determined. Rings (2-3 mm) obtained in a similar manner as those in the contraction studies, were incubated in 1 ml DMEM/F12 media containing 1% FBS at 37° C. under 95% O2-5% CO2 in 24-well culture plates. Rings were incubated for 24 hours with: • (i) ^3H-corticosterone ([…])±11β-HSD2 or 11β-HSD1 antisense (3 μmol/L); control groups received nonsense oligomers. The amount of ^3H-11-dehydro-corticqsterone in the incubation medium after 24 hrs was then measured. The effects of 11β-HSD1 antisense/nonsense were measured in quadruplicate (n=6 aortic rings per well) and the effects of 11β-HSD2 antisense/nonsense in duplicate (n=8 aortic rings per well), • (ii) ^3H-11-dehydro-corticosterone (10 nmol/L)±11β-HSD1 antisense (3 μmol/L); this experiment was performed in duplicate (n=10 aortic rings per well). Control groups were incubated with the appropriate nonsense oligomer. ^3H-corticosterone in the incubation medium after 24 hrs was then measured. In this experiment, aortic rings were also analyzed for ^3H-corticosterone content. Rings from duplicate incubations (total n=20) were blotted dry, pooled and homogenized in 50% methanol using a Polytron. The homogenates were then centrifuged, extracted as below using Sep-Paks and injected onto a HPLC system for analysis.\nas §1\nCorticosterone and phenylephrine were obtained from Sigma (St Louis, Mo.), 11-dehydrocorticosterone from Research Plus (Bayonne, N.J.) and ^3H-steroids from New England Nuclear (Boston, Mass.). Where appropriate, data were expressed as mean±SE and analyzed using ANOVA and the Student's t test with Bonferroni modification. […]"}, "11β-HSD1 Reductase": {"target": "T1, 11β-HSD1 Reductase (Rattus norvegicus, UniProt P16232)", "T1 construct": "an enzyme present in testicular Leydig cells; endogenous in cells; host or cells: freshly prepared rat Leydig cells", "T1 sequence (P16232 whole entry)": "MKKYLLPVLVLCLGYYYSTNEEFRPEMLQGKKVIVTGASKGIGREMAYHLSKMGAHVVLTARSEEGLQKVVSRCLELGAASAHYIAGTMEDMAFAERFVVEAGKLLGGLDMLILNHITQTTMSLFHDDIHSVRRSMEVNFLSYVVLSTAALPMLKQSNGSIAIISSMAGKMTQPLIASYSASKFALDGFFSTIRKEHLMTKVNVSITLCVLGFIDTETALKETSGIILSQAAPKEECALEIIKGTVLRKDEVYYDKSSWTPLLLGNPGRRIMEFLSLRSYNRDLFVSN", "test": "Inhibition of 11β-HSD1 reductase (Table 1)", "format": "cell-based"}, "11β-HSD1 Dehydrogenase": {"target": "T2, 11β-HSD1 Dehydrogenase (Rattus norvegicus, UniProt P16232)", "T2 construct": "an enzyme present in testicular Leydig cells; endogenous in cells; host or cells: freshly prepared rat Leydig cells", "T2 sequence (P16232 whole entry)": "as above", "test": "Inhibition of 11β-HSD1 dehydrogenase (Table 1)", "format": "cell-based"}, "11β-HSD2 Dehydrogenase": {"target": "T3, 11β-HSD2 Dehydrogenase (Homo sapiens, UniProt P80365)", "T3 sequence (P80365 1-405)": "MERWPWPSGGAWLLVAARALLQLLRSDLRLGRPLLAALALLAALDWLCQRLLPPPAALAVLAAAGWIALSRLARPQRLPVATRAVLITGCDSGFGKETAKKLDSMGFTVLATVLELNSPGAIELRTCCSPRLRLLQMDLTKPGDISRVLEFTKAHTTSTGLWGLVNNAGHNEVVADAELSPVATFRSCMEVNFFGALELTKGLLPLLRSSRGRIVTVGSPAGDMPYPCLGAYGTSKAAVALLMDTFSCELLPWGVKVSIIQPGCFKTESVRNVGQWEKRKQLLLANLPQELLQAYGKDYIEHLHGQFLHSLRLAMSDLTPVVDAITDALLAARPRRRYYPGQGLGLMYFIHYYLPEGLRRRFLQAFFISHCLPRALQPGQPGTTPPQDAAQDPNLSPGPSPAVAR", "test": "Inhibition of 11β-HSD2 dehydrogenase (Table 1)", "format": "biochemical"}, "[2]": {"settings": "with the 11β-HSD1-reductase inhibitor steroid"}},
  "data": [
    {"compound": "11β-HSD1 antisense: Antisense phosphorothioate oligonucleotide blocking 11β-HSD1 gene expression, 5′-CATAACTGCCGTCCAACAGC-3′ (antisense CATAACTGCCGTCCAACAGC; all phosphorothioate, sugars by position and methylation of C not given here; listed as Homo sapiens)", "values": [
      {"measurement": "ability of 11-dehydro-corticosterone to amplify the contractile response to phenylephrine", "setting": "rat aortic rings; rings incubated 24 hours with 11-dehydro-corticosterone (100 nmol/L) and antisense (3 μmol/L), compared to nonsense oligomers", "value": "attenuated"},
      {"measurement": "contractile response to phenylephrine", "setting": "rat aortic rings; compared to nonsense oligomers", "value": "significantly increased"},
      {"measurement": "reduction in the conversion of corticosterone to 11-dehydrocorticosterone", "setting": "11β-HSD enzyme activity", "value": 21, "unit": "%"},
      {"measurement": "production of 3H-corticosterone from 3H-11-dehydrocorticosterone", "setting": "[1]; incubation medium, 24 hours, antisense compared to nonsense oligomers", "value": "markedly reduced"},
      {"measurement": "production of 3H-corticosterone in aortic ring tissue", "setting": "[1]; pooled aortic ring tissue (n=20), antisense compared to nonsense oligomers", "value": "markedly lower"}
    ]},
    {"compound": "11β-HSD2 antisense: Antisense phosphorothioate oligonucleotide blocking 11β-HSD2 gene expression, 5′-AGCCCAGCGCTCCATGACTT-3′ (antisense AGCCCAGCGCTCCATGACTT; all phosphorothioate, sugars by position and methylation of C not given here; listed as Homo sapiens)", "values": [
      {"measurement": "contractile response to phenylephrine", "setting": "rat aortic rings; compared to nonsense oligomers", "value": "statistically significant increase"},
      {"measurement": "reduction in the conversion of corticosterone to 11-dehydrocorticosterone", "setting": "11β-HSD enzyme activity", "value": 24, "unit": "%"}
    ]},
    {"compound": "C[C@]12CC[C@H](O)C[C@H]1CC[C@@H]1[C@H]2[C@@H](O)C[C@@]2(C)[C@@H]1CC[C@@H]2O", "note": "[3α,5β-reduced- 11β-OH—testosterone]", "values": [
      {"measurement": "11β-HSD1 Reductase (inhibition)", "setting": "11β-HSD1 Reductase", "value": "No Inhibition"},
      {"measurement": "11β-HSD1 Dehydrogenase (inhibition)", "setting": "11β-HSD1 Dehydrogenase", "value": "Moderate Inhibitor"},
      {"measurement": "11β-HSD2 Dehydrogenase (inhibition)", "setting": "11β-HSD2 Dehydrogenase", "value": "No Inhibition"}
    ]},
    {"compound": "C[C@]12CCC(=O)C[C@@H]1CC[C@@H]1[C@@H]2[C@@H](O)C[C@]2(C)[C@@H](C(=O)CO)CC[C@@H]12", "note": "[5α-dihydro- corticosterone]", "values": [
      {"measurement": "11β-HSD1 Reductase (inhibition)", "setting": "11β-HSD1 Reductase", "value": "No inhibition"},
      {"measurement": "11β-HSD1 Dehydrogenase (inhibition)", "setting": "11β-HSD1 Dehydrogenase", "value": "Potent Inhibitor"},
      {"measurement": "11β-HSD2 Dehydrogenase (inhibition)", "setting": "11β-HSD2 Dehydrogenase", "value": "Potent Inhibitor"}
    ]},
    {"compound": "CC(=O)[C@H]1CC[C@@H]2[C@@H]3CCC4=CC(=O)CC[C@]4(C)[C@@H]3C(=O)C[C@]12C", "note": "[11-Keto-progesterone]", "values": [
      {"measurement": "11β-HSD1 Reductase (inhibition)", "setting": "11β-HSD1 Reductase", "value": "Selective Inhibitor"},
      {"measurement": "11β-HSD1 Dehydrogenase (inhibition)", "setting": "11β-HSD1 Dehydrogenase", "value": "No Inhibition"},
      {"measurement": "11β-HSD2 Dehydrogenase (inhibition)", "setting": "11β-HSD2 Dehydrogenase", "value": "Potent Inhibitor"},
      {"measurement": "ability of 11-dehydro-corticosterone to amplify the contractile effects of phenylephrine", "setting": "rat aortic rings; [2]", "value": "diminished"},
      {"measurement": "metabolism of 11-dehydro-corticosterone back to corticosterone", "setting": "[1]; [2]", "value": "decreased"}
    ]},
    {"compound": "C[C@]12CC(=O)[C@@H]3[C@@H](CCC4=CC(=O)CC[C@@]43C)[C@H]1CC[C@@H]2O", "note": "[11-Keto-testosterone]", "values": [
      {"measurement": "11β-HSD1 Reductase (inhibition)", "setting": "11β-HSD1 Reductase", "value": "Selective Inhibitor"},
      {"measurement": "11β-HSD1 Dehydrogenase (inhibition)", "setting": "11β-HSD1 Dehydrogenase", "value": "No Inhibition"},
      {"measurement": "11β-HSD2 Dehydrogenase (inhibition)", "setting": "11β-HSD2 Dehydrogenase", "value": "No Inhibition"}
    ]},
    {"compound": "C[C@]12CC(=O)[C@H]3[C@@H](CCC4=CC(=O)CC[C@@]43C)[C@@H]1CC[C@@H]2C(=O)CO", "note": "[11-dehydro-corticosterone, reference compound]", "values": [
      {"measurement": "effect of the steroid on contractile responses to phenylephrine", "setting": "rat aortic rings", "value": "amplifies the contractile responses"}
    ]},
    {"compound": "C[C@]12C[C@H](O)[C@@H]3[C@@H](CCC4=CC(=O)CC[C@@]43C)[C@H]1CC[C@@H]2O", "note": "[11β-OH—testosterone]", "values": [
      {"measurement": "11β-HSD1 Reductase (inhibition)", "setting": "11β-HSD1 Reductase", "value": "No Inhibition"},
      {"measurement": "11β-HSD1 Dehydrogenase (inhibition)", "setting": "11β-HSD1 Dehydrogenase", "value": "Inhibitor (Non-Selective)"},
      {"measurement": "11β-HSD2 Dehydrogenase (inhibition)", "setting": "11β-HSD2 Dehydrogenase", "value": "Inhibitor (Non-Selective)"}
    ]},
    {"compound": "C[C@H](CCC(=O)O)[C@H]1CC[C@H]2[C@@H]3[C@H](O)C[C@@H]4C[C@H](O)CC[C@]4(C)[C@H]3CC[C@]12C", "note": "[chenodeoxycholic acid]", "values": [
      {"measurement": "11β-HSD1 Reductase (inhibition)", "setting": "11β-HSD1 Reductase", "value": "No Inhibition"},
      {"measurement": "11β-HSD1 Dehydrogenase (inhibition)", "setting": "11β-HSD1 Dehydrogenase", "value": "Selective inhibitor"},
      {"measurement": "11β-HSD2 Dehydrogenase (inhibition)", "setting": "11β-HSD2 Dehydrogenase", "value": "No Inhibition"}
    ]},
    {"compound": "C[C@]12C[C@H](O)[C@H]3[C@@H](CCC4=CC(=O)CC[C@@]43C)[C@@H]1CC[C@@H]2C(=O)CO", "note": "[corticosterone, reference compound]", "values": [
      {"measurement": "effect of the steroid on contractile responses to phenylephrine", "setting": "rat aortic rings", "value": "amplified contractile responses"}
    ]}
  ]
}
